Experimental data reported in article PMC8596838, “Xylose‐Configured Cyclophellitols as Selective Inhibitors for Glucocerebrosidase” (Chembiochem, 2021).

Biological target: T1, GBA2 E527G mutant and E527G/D667G double mutant (Homo sapiens, UniProt Q9HCG7, E527G)
T1 construct: expressed in transfected cells; host or cells: HEK293T
T1 sequence (Q9HCG7 1-927 E527G): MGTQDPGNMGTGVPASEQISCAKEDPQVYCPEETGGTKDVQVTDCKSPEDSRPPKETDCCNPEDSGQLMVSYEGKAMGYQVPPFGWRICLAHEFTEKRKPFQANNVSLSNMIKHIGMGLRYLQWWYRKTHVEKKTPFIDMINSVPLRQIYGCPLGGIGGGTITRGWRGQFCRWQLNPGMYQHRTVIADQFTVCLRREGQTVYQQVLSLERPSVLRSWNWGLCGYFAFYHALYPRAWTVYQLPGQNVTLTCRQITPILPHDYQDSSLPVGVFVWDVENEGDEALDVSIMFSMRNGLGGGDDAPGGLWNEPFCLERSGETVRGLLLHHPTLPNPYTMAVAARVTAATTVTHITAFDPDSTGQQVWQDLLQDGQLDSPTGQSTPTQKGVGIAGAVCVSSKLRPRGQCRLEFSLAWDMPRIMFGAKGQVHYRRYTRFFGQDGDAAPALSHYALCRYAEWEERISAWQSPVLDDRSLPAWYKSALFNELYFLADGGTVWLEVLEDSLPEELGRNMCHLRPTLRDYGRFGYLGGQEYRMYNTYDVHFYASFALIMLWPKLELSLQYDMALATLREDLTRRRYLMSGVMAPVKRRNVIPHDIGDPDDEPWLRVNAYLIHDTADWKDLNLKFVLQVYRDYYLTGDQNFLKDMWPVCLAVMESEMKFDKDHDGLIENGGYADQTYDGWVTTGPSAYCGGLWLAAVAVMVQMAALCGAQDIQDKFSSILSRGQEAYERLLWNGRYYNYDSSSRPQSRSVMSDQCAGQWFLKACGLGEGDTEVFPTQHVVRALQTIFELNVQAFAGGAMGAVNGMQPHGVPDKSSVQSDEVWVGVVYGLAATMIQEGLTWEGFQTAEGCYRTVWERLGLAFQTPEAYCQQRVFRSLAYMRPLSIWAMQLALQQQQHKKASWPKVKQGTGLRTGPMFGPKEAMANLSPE
Assay: ABP labeling of mutant GBA2 expressed in HEK293T cells
Assay type: biochemical
Conditions: HEK293T cells expressing mutant GBA2
Description: Figure 4 (A) ABP labeling of β‐D‐glucosidases. A lysate of HEK293T cells expressing human GBA, GBA2 and GBA3 was incubated with indicated ABPs (6, 9 or 10) for 30 min at pH 6.0. Fluorescently labeled proteins were visualized after SDS‐PAGE. (B) Labeling with ABP 6 of wild type or mutant GBA2 (E527G nucleophile mutation and D667G acid/base mutation) expressed in HEK293T cells.
Cell culture: HEK293T (CRL‐3216) were purchased from ATCC (Manassas, VA, USA). HEK293T cells were cultured in DMEM medium (Sigma‐Aldrich), supplied with 10 % (v/v) FCS, 0.1 % (w/v) penicillin/streptomycin and 1 % (v/v) Glutamax, under 7 % CO2. […] First the GBA Knockout cells were generated using the annealed oligonucleotides (top strand) 5’‐CACCGCGCTATGAGAGTACACGCAG‐3’ and (bottom strand 5’‐AAACCTGCGTGTACTCTCATAGCGC‐3’ and after ligation in the BbsI site of the px330 and subsequent transfection into the HEK293T cells. Single cells were created and the different clones were analyzed for lack of expression of GBA with enzyme activity assays and ABPs and subsequent genomic sequence analysis. The true GBA knockout cells were next used to create the GBA/GBA2 double knockout cells (using the px330 and the following annealed and ligated oligonucleotides (top strand 5‐CACCGGACGGACTGCTGCAATCCGG‐3’ and bottom strand 5’‐AAACCCGGATTGCAGCAGTCCGTCC‐3’. […]

CN1/C(=C/C=C/C=C/C2=[N+](CCCCCC(=O)NCc3cn(CCCCCCCCN4[C@H]5[C@H](O)[C@@H](O)[C@H](O)C[C@H]54)nn3)c3ccccc3C2(C)C)C(C)(C)c2ccccc21 (stereo partly shown) [ABP 6]
labeling of GBA2 E527G mutant and E527G/D667G double mutant: no longer labeled
